{"source": "patent US20160089434A1", "about": "“COMBINATIONS OF AN ANTI-PD-L1 ANTIBODY AND A MEK INHIBITOR AND/OR A BRAF INHIBITOR” (NOVARTIS AG, priority 2013, published 2016)", "key": {"[1]": {"tested_on": "CT26 tumors", "test": "CT-26 murine carcinoma syngeneic mouse model", "type": "in vivo, BALB/C mice", "conditions": "mono-therapy at 1 mg/kg orally once a day, after 18 days of treatment", "method": "Female BALB/C mice (Charles River) were used. The animals received food and water ad libitum and were housed in compliance normal standard of care for Laboratory Animals. Tumors were established by subcutaneously implanting 5×10^4 CT26 cells in suspension into the right flanks of mice. Tumor […] were calculated using the equation (l×w^2)/2, where l and w refer to the larger and smaller dimensions collected at each measurement. Treatments began at day 11 after cell implantation with tumor size around 40-100 mm^3. Mice (n=10/group) were treated with Compound A at 1 mg/kg, orally once a day for 21 days, or anti-mouse antibodies, rat-IgG2a and αPD-L1 (10F.9G2 clone) at 10 mg/kg, intraperitoneally (i.p.) twice weekly for three weeks. Tumors were monitored and each animal was euthanized when it's tumor reached the endpoint volume of 2000 mm^3, ulcerated, or on the final day (Day 21), whichever came first. Percent tumor growth inhibition (% TGI) was defined as the difference between the mean tumor volume (MTV) of the designated control group and the MTV of the drug-treated group, expressed as a percentage of the MTV of the designated control group: % TGI=[1−(MTVdrug-treated/MTVcontrol)]×100.\nLog-transformed tumor volume was analyzed using ANOVA, fitting a term for treatment. Differences between fitted treatment means were then calculated with associated raw p-values. […]"}, "[2]": {"tested_on": "pERK1/2 (T202/Y204)", "test": "MAPK signaling inhibition in CT26 cells by western blot (pERK)", "type": "cell-based, mouse", "conditions": "24 hours", "method": "MAPK signaling inhibition by Compound A from CT 26 cells were determined by western blot analysis. CT26 cells were treated with Compound A in culture medium containing 10% FBS for 24 hours. Proteins were extracted for immunoblotting with anti-ERK1/2 and pERK1/2 (T202/Y204) from Santa Cruz Biotechnology. The membranes were developed with Odyssey Infrared Imaging System (LI-COR Biosciences)."}, "[3]": {"tested_on": "CT26 mouse colon carcinoma cells", "test": "Cell growth inhibition of CT26 cells, CellTiter-Glo (CTG) assay", "type": "cell-based", "conditions": "72 h, CT26 cells (KRAS G12D, MAPK1 and MET amplifications), 3 days, 10% FBS, read-out: IC50 value in cell proliferation inhibition", "method": "CT26 mouse colon carcinoma cells from American Type Culture Collection (ATCC, cat#CRL-2638, lot#59227052) were cultured in RPMI with 10% fetal bovine serum (FBS) media. Cell growth inhibition was determined via CellTiter-Glo® (CTG) assay (Promega) according to the manufacturer's protocol. Approximately 24 hours after plating, cells were exposed to Compound A with three-fold serial dilutions. Cells were incubated with the compound in culture medium containing 10% FBS for 3 days. IC50 values were interpolated using the method of Levenberg & Marquardt and the equation: y=Vmax−{1−[xn/(Kn+xn)]}, where ‘K’ is equal to IC50 (Mager M E, Data Analysis in Biochemistry and Biophysics. New York: Academic Press. 1972)."}}}
{"smiles": "CC(=O)Nc1cccc(-n2c(=O)n(C3CC3)c(=O)c3c(Nc4ccc(I)cc4F)n(C)c(=O)c(C)c32)c1", "note": "[Compound A, N-{3-[3-cyclopropyl-5-(2-fluoro-4-iodo-phenylamino)6,8-dimethyl-2,4,7-trioxo-3,4,6,7-tetrahydro-2H-pyrido[4,3-d]pyrimidin-1-yl]phenyl}acetamide]", "values": [{"measurement": "TGI (tumor growth inhibition)", "setting": "[1]", "value": 61, "unit": "%"}, {"measurement": "MAPK signaling inhibition measured by pERK", "setting": "[2]", "value": "dose dependent MAPK signaling inhibition"}, {"measurement": "IC50", "setting": "[3]", "value": 20, "unit": "nM"}]}
